Data on eight compounds can be found in patent EP4265127A1, “WATER-SOLUBLE EMULSION COMPOSITION CONTAINING NATURAL POLYPHENOL COMPOUND” (Yun, Kwan Sik, priority 2020, dated 2022).

A short description of the data set: Water solubility confirmation (organic material content quantified by Karl Fisher method). Type of data set: physicochemical. As for the experimental part:
According to the composition shown in Tables 38 to 61, the water-soluble antioxidant emulsion was added to the natural polyphenol compound emulsion, and then mixing and dispersing were performed at 500 rpm or less while checking the properties of the emulsion to prepare an natural polyphenol compound-containing water-soluble emulsion composition containing a water-soluble antioxidant emulsion. […] After 1 hour of centrifugation and filtering, an organic material content was quantified by measuring a water content using a Karl Fisher method.
Compound `O=c1cc(-c2ccc(O)c(O)c2)oc2cc(O)cc(O)c12` [Generic Powdered Luteolin] returned a Water solubility of 0.02%.
The result for `COc1cc(/C=C/C(=O)CC(=O)/C=C/c2ccc(O)c(OC)c2)ccc1O` [Generic Powdered Curcumin] reads 0.00%; that for `O=C1C[C@@H](c2ccc(O)cc2)Oc2cc(O)cc(O)c21` [Generic Powdered Naringenin], 0.04%; that for `O=c1cc(-c2ccccc2)oc2cc(O)c(O)c(O)c12` [Generic Powdered Baicalein], 0.00%.
Turning to `O=c1c(O)c(-c2ccc(O)c(O)c2)oc2cc(O)cc(O)c12` [Generic powdered Quercetin], the Water solubility turned out to be 0.00%.
Take `O=c1c(O)c(-c2ccc(O)cc2)oc2cc(O)cc(O)c12` [Generic Powdered kaempferol]: the Water solubility is on record as 0.01%.
`COc1ccc([C@@H]2CC(=O)c3c(O)cc(O[C@@H]4O[C@H](CO[C@@H]5O[C@@H](C)[C@H](O)[C@@H](O)[C@H]5O)[C@@H](O)[C@H](O)[C@H]4O)cc3O2)cc1O` [Generic powdered Hesperidin] gave a Water solubility of 0.00%.
As to `Oc1ccc(/C=C/c2cc(O)cc(O)c2)cc1` [Generic Powdered Resveratrol], the Water solubility amounted to 0.00%.
